Test results reported in US12144874B2, “Synthesis and composition of photodynamic therapeutic agents for the targeted treatment of cancer” (On Target Laboratories, LLC, priority 2015, dated 2024).
pEC50, pIC50: −log10 of the molar value. “Also recorded” adds a separate entry of the source. Like-named read-outs stand apart in the source and are kept apart here. Blank lines part the entries; values can stand above or below the molecule they belong to.

Experiments:
subcutaneous KB tumor = test: In vivo PDT efficacy on growth of subcutaneous KB tumor xenograft in nude mice; conditions: 50 nmol dose, laser 75 mW/cm^2, 137 J/cm^2, 38 min, 3 h after injection
Protocol: The growth of the tumor was monitored (images were taken) and tumor volume was measured using caliper.
In the following examples, the in vivo efficacy of the compounds is determined using KB tumor cell xenograft in nude mice. In these studies, KB cells were implanted subcutaneously and growth of the tumors was monitored. […] Moreover, once tumors grow to […], the compounds were injected via tail vein. […] In vivo efficacy of BPheid-a was evaluated by monitoring reduction of tumor volume.
KB cells that overexpressed folate receptor were implanted subcutaneously into female nude mice and allowed to grow to ˜50 mm^3 prior to initiation of treatment with 50 nmol of BPheid-a (1). […] In vivo efficacy of BPheid-a was evaluated by monitoring reduction of tumor volume.

[1] = Table 3, nucleus-targeted modified PDT agents, free drugs in DMSO, 2 h incubation, laser 32 min, then 24 h
[2] = Table 8, folate-targeted releasable visudyne conjugates
[3] = Table 2, mitochondrial-targeted modified PDT agents, free drugs in DMSO, 2 h incubation, laser 32 min, then 24 h

SMILES: CC[C@H]1c2cc3[nH]c4c(c3C)C(=O)C(C(=O)OC)c4c3nc(cc4[nH]c(cc(n2)[C@@H]1C)c(C(C)=O)c4C)[C@@H](C)[C@@H]3CCC(=O)NC(CC(=O)NC1C(O)OC(CO)C(O)C1O)C(=O)NNC(=O)OCCSSC[C@H](NC(=O)[C@H](CC(=O)NCCS(=O)(=O)O)NC(=O)CC[C@H](NC(=O)c1ccc(NCc2cnc3nc(N)[nH]c(=O)c3n2)cc1)C(=O)O)C(=O)O (stereo partly drawn) [Compound 92a]
Effect on growth of subcutaneous KB tumor, in words (subcutaneous KB tumor): completely reduced the tumor | Activity class on KB cancer cells in culture (active / highly active) (KB cells): active | pEC50 (KB cells; 2 h): 7.48

IC50 (KB cells; [1]): Not active*
SMILES: CC[C@H]1C2=Cc3c(C)c(C(=O)NNC(=O)Nc4cccc(S(=O)(=O)O)c4)c4[n]3[Pd][n]3c(c(C)c(C(C)=O)c3=CC(=N2)[C@@H]1C)=CC1=NC(=C4CC(=O)OC)[C@@H](CCC(=O)O)[C@@H]1C [Compound 39]

SMILES: CC[C@H]1c2cc3[nH]c4c(c3C)C(=O)C(C(=O)OC)c4c3nc(cc4[nH]c(cc(n2)[C@@H]1C)c(C(C)=O)c4C)[C@@H](C)[C@@H]3CCC(=O)NCCCC(NC(=O)c1ccc(N(C)Cc2cnc3nc(N)nc(N)c3n2)cc1)C(=O)NNC(=O)OCCSSC[C@H](NC(=O)[C@H](CC(=O)NCCS(=O)(=O)O)NC(=O)CC[C@H](NC(=O)c1ccc(NCc2cnc3nc(N)[nH]c(=O)c3n2)cc1)C(=O)O)C(=O)O (stereo partly drawn) [Compound 117]
pEC50 (KB cells; 2 h): 5.55

SMILES: C=CC1=C(C)c2cc3[nH]c(cc4nc(cc5[nH]c(cc1n2)c(C)c5CCC(=O)OC)C(CCC(=O)NNC(=O)OCCSSCC(NC(=O)c1ccc(NCc2cnc5nc(N)[nH]c(=O)c5n2)cc1)C(=O)O)=C4C)[C@@]1(C)C3=CC=C(C(=O)OC)[C@H]1C(=O)OC (stereo partly drawn) [Compound 81]
Activity on KB cancer cells in culture, in words (KB cells): not active | EC50 (KB cells; [2]): Not active*

SMILES: CC[C@H]1c2cc3[nH]c4c(c3C)C(=O)C(C(=O)OC)c4c3nc(cc4[nH]c(cc(n2)[C@@H]1C)c(C(C)=O)c4C)[C@@H](C)[C@@H]3CCC(=O)NNC(=O)OCCSSC[C@H](NC(=O)CCOCCOCCOCCOCCOCCOCCNC(=O)CC[C@H](NC(=O)c1ccc(NCc2cnc3nc(N)[nH]c(=O)c3n2)cc1)C(=O)O)C(=O)O (single isomer, unassigned) [Compound 76b]
Effect on growth of subcutaneous KB tumor, in words (subcutaneous KB tumor): less active in mice as compared to 76a and 76c; also recorded: completely cured with no recurrence during the monitored time (3 weeks) | pEC50 (KB cells; 2 h): 6.49

SMILES: CC[C@H]1c2cc3[nH]c4c(c3C)C(=O)C(C(=O)OC)c4c3nc(cc4[nH]c(cc(n2)[C@@H]1C)c(C(C)=O)c4C)[C@@H](C)[C@@H]3CCC(=O)NCCNC(=O)OCCSSC[C@H](NC(=O)[C@H](CC(=O)NCCS(=O)(=O)O)NC(=O)CC[C@H](NC(=O)c1ccc(NCc2cnc3nc(N)[nH]c(=O)c3n2)cc1)C(=O)O)C(=O)O (stereo partly drawn) [Compound 65c]
pEC50 (KB cells; 2 h): 7.94

SMILES: CC[C@H]1c2cc3[nH]c4c(c3C)C(=O)C(C(=O)OC)c4c3nc(cc4[nH]c(cc(n2)[C@@H]1C)c(C(C)=O)c4C)[C@@H](C)[C@@H]3CCC(=O)NC(Cc1ccc(N(CCCl)CCCl)cc1)C(=O)O (stereo partly drawn) [Compound 41]
pIC50 (KB cells; [1]): 7.17

pEC50 (KB cells; 2 h): 6.80
SMILES: CC[C@H]1c2cc3[nH]c(c(CC(=O)OC)c4nc(cc5[nH]c(cc(n2)[C@@H]1C)c(C(C)=O)c5C)[C@@H](C)[C@@H]4CCC(=O)NCCSSC[C@H](NC(=O)[C@H](CC(=O)NCCS(=O)(=O)O)NC(=O)CC[C@H](NC(=O)c1ccc(NCc2cnc4nc(N)[nH]c(=O)c4n2)cc1)C(=O)O)C(=O)O)c(C(=O)N[N+](C)(C)C)c3C [Compound 101]

pEC50 (KB cells; 2 h): 5.22
SMILES: CC[C@H]1c2cc3[nH]c(c(CC(=O)OC)c4nc(cc5[nH]c(cc(n2)[C@@H]1C)c(C(C)=O)c5C)[C@@H](C)[C@@H]4CCC(=O)NNC(=O)OCCSSC[C@H](NC(=O)CCOCCOCCOCCOCCOCCOCCNC(=O)CC[C@H](NC(=O)c1ccc(NCc2cnc4nc(N)[nH]c(=O)c4n2)cc1)C(=O)O)C(=O)O)c(C(=O)N[N+](C)(C)C)c3C [Compound 87b]

pEC50 (KB cells; [3]): 7.64
SMILES: CC[C@H]1c2cc3[nH]c4c(c3C)C(=O)C(C(=O)OC)c4c3nc(cc4[nH]c(cc(n2)[C@@H]1C)c(C(C)=O)c4C)[C@@H](C)[C@@H]3CCC(=O)NCCC[C@@H](C(=O)OC(C)(C)C)[N+](C)(C)C (stereo partly drawn) [Compound 11b]

pEC50 (KB cells; [3]): 7.81
SMILES: CC[C@H]1c2cc3[nH]c4c(c3C)C(=O)C(C(=O)OC)c4c3nc(cc4[nH]c(cc(n2)[C@@H]1C)c(C(C)=O)c4C)[C@@H](C)[C@@H]3CCC(=O)NCCC[C@@H](C(=O)O)[N+](C)(C)C (stereo partly drawn) [Compound 12b]

SMILES: CC[C@H]1c2cc3[nH]c4c(c3C)C(=O)C(C(=O)OC)c4c3nc(cc4[nH]c(cc(n2)[C@@H]1C)c(C(C)=O)c4C)[C@@H](C)[C@@H]3CCC(=O)NCCC[C@H](NC(=O)CC[P+](c1ccccc1)(c1ccccc1)c1ccccc1)C(=O)NCCSSC[C@H](NC(=O)[C@H](CC(=O)NCCS(=O)(=O)O)NC(=O)CC[C@H](NC(=O)c1ccc(NCc2cnc3nc(N)[nH]c(=O)c3n2)cc1)C(=O)O)C(=O)O (stereo partly drawn) [Compound 99]
pEC50 (KB cells; 2 h): 8.28

pEC50 (KB cells; 2 h): 7.46
SMILES: CC[C@H]1c2cc3[nH]c(c(CC(=O)OC)c4nc(cc5[nH]c(cc(n2)[C@@H]1C)c(C(C)=O)c5C)[C@@H](C)[C@@H]4CCC(=O)NNC(=O)OCCSSC[C@H](NC(=O)CCOCCOCCOCCOCCOCCOCCOCCOCCNC(=O)CC[C@H](NC(=O)c1ccc(NCc2cnc4nc(N)[nH]c(=O)c4n2)cc1)C(=O)O)C(=O)O)c(C(=O)NCCOCCOCCO)c3C [Compound 88a]
Activity class on KB cancer cells in culture (active / highly active) (KB cells): active

pIC50 (KB cells; [1]): 5.39
SMILES: CC[C@H]1c2cc3[nH]c4c(c3C)C(=O)C(C(=O)OC)c4c3nc(cc4[nH]c(cc(n2)[C@@H]1C)c(C(C)=O)c4C)[C@@H](C)[C@@H]3CCC(=O)N[C@@H](CC(=O)NCCS(=O)(=O)O)C(=O)O (stereo partly drawn) [Compound 40]

SMILES: CC[C@H]1c2cc3[nH]c4c(c3C)C(=O)C(C(=O)OC)c4c3nc(cc4[nH]c(cc(n2)[C@@H]1C)c(C(C)=O)c4C)[C@@H](C)[C@@H]3CCC(=O)NCCSSC[C@H](NC(=O)[C@H](CC(=O)NCCS(=O)(=O)O)NC(=O)CC[C@H](NC(=O)c1ccc(NCc2cnc3nc(N)[nH]c(=O)c3n2)cc1)C(=O)O)C(=O)O (stereo partly drawn) [Compound 64]
Effect on growth of subcutaneous KB tumor, in words (subcutaneous KB tumor): completely cure the tumor and showed tumor regression for 2 weeks

pEC50 (KB cells; [3]): 6.26
SMILES: CC[C@H]1c2cc3[nH]c4c(c3C)C(=O)C(C(=O)OC)c4c3nc(cc4[nH]c(cc(n2)[C@@H]1C)c(C(C)=O)c4C)[C@@H](C)[C@@H]3CCC(=O)N[C@@H](CCC(=O)NC1C(O)OC(CO)C(O)C1O)C(=O)O (stereo partly drawn) [Compound 19]

EC50 (KB cells; Table 1, non-targeted PDT agents, free drugs in DMSO, 2 h incubation, laser 6 mW/cm^2, 12 J/cm^2, 32 min, then 24 h): Not active
SMILES: Oc1cccc(-c2c3nc(c(-c4cccc(O)c4)c4ccc([nH]4)c(-c4cccc(O)c4)c4nc(c(-c5cccc(O)c5)c5ccc2[nH]5)CC4)C=C3)c1 [Compound 6, Foscan, reference compound]

SMILES: CC[C@H]1c2cc3[nH]c4c(c3C)C(=O)C(C(=O)OC)c4c3nc(cc4[nH]c(cc(n2)[C@@H]1C)c(C(C)=O)c4C)[C@@H](C)[C@@H]3CCC(=O)NCCSSC[C@H](NC(=O)[C@H](CC(=O)NCCS(=O)(=O)O)NC(=O)[C@H](CC(=O)NCCS(=O)(=O)O)NC(=O)CC[C@H](NC(=O)c1ccc(NCc2cnc3nc(N)[nH]c(=O)c3n2)cc1)C(=O)O)C(=O)O (stereo partly drawn) [Compound 105]
pEC50 (KB cells; 2 h): 7.34

SMILES: C=CC1=C(C)c2cc3[nH]c(cc4nc(cc5[nH]c(cc1n2)c(C)c5CCC(=O)NNC(=O)OCCSSC[C@H](NC(=O)[C@H](CCCNC(=N)N)NC(=O)C[C@@H](NC(=O)[C@H](CCCNC(=N)N)NC(=O)CC[C@H](NC(=O)c1ccc(NCc2cnc5nc(N)[nH]c(=O)c5n2)cc1)C(=O)O)C(=O)O)C(=O)O)C(CCC(=O)OC)=C4C)[C@]1(C)C3=CC=C(C(=O)OC)[C@@H]1C(=O)OC [Compound 85]
Activity on KB cancer cells in culture, in words (KB cells): not active | EC50 (KB cells; [2]): Not active*

SMILES: CC[C@H]1c2cc3[nH]c4c(c3C)C(=O)C(C(=O)OC)c4c3nc(cc4[nH]c(cc(n2)[C@@H]1C)c(C(C)=O)c4C)[C@@H](C)[C@@H]3CCC(=O)N[C@@H](CC(=O)N[N+](C)(C)C)C(=O)NNC(=O)OCCSSC[C@H](NC(=O)C[C@H](NC(=O)CC[C@H](NC(=O)c1ccc(NCc2cnc3nc(N)[nH]c(=O)c3n2)cc1)C(=O)O)C(=O)NCCS(=O)(=O)O)C(=O)O (stereo partly drawn) [Compound 95a]
pEC50 (KB cells; 2 h): 6.78

SMILES: CC[C@H]1c2cc3[nH]c4c(c3C)C(=O)C(C(=O)OC)c4c3nc(cc4[nH]c(cc(n2)[C@@H]1C)c(C(C)=O)c4C)[C@@H](C)[C@@H]3CCC(=O)NNC(=O)OCCSSC[C@H](NC(=O)CCOCCOCCOCCOCCOCCOCCOCCOCCNC(=O)CC[C@H](NC(=O)c1ccc(NCc2cnc3nc(N)[nH]c(=O)c3n2)cc1)C(=O)O)C(=O)O (single isomer, unassigned) [Compound 76d]
pEC50 (KB cells; 2 h): 6.47

SMILES: CC[C@@H]1c2cc3[nH]c4c(c3C)C(=O)C(C(=O)OC)c4c3nc(cc4[nH]c(cc(n2)[C@H]1C)c(C(C)=O)c4C)[C@H](C)[C@H]3CCC(=O)NCCC[C@@H](C(=O)NNC(=O)OCCSSC[C@H](NC(=O)[C@H](CC(=O)NCCS(=O)(=O)O)NC(=O)CC[C@H](NC(=O)c1ccc(NCc2cnc3nc(N)[nH]c(=O)c3n2)cc1)C(=O)O)C(=O)O)[N+](C)(C)C (stereo partly drawn) [Compound 89a]
Effect on growth of subcutaneous KB tumor, in words (subcutaneous KB tumor): completely reduced the tumor | pEC50 (KB cells; 2 h): 8.43

SMILES: CC[C@H]1c2cc3[nH]c4c(c3C)C(=O)C(C(=O)OC)c4c3nc(cc4[nH]c(cc(n2)[C@@H]1C)c(C(C)=O)c4C)[C@@H](C)[C@@H]3CCC(=O)N[C@@H](CCC(=O)NCCS(=O)(=O)O)C(=O)NCCNC(=O)OCCSSC[C@H](NC(=O)[C@H](CC(=O)NCCS(=O)(=O)O)NC(=O)CC[C@H](NC(=O)c1ccc(NCc2cnc3nc(N)[nH]c(=O)c3n2)cc1)C(=O)O)C(=O)O (stereo partly drawn) [Compound 119]
pEC50 (KB cells; 2 h): 6.27
